Assay results from US20220185795A1, “COMPOUND FORM HAVING ENHANCED BIOAVAILABILITY AND FORMULATIONS THEREOF” (PTC THERAPEUTICS, INC., priority 2019, published 2022).
Values after ≈ are worked out from the molar mass of the structure shown. “Also recorded” adds a separate entry of the source.

Assays:
[1] = Dynamic Vapor Sorption (DVS); format: physicochemical; conditions: at 95% RH
[2] = Solubility in aqueous phosphate buffer and FaSSIF, pH 6.5; format: physicochemical
[3] = pKa of aromatic amino group; format: physicochemical; conditions: weakly basic aromatic amino group
[4] = Storage stability study of SDD tablets; format: physicochemical; conditions: tablet form, a year at 40° C./75% relative humidity (RH)
Excerpt: Granules were obtained through dry granulation, milling and mixing process. A dry granulation was obtained by sieving together a mixture of microcrystalline cellulose, lactose monohydrate, croscarmellose sodium, Poloxamer 407, colloidal silicon dioxide and the SDD, then adding magnesium stearate and mixing to obtain a first admixture. The density of the first admixture was increased by dry granulation to provide a first portion of granules. A second portion of magnesium stearate was sieved with a 30-mesh sieve, then combined with the first portion of granules and mixed in a V-blender for 2 minutes to obtain a second admixture. The second portion of granules were then obtained using a roller compactor and milled. The milled granules were added to the V-blender and mixed with the extragranular excipient's microcrystalline cellulose, lactose monohydrate and croscarmellose sodium. The extragranular excipients were sieved through a 30-mesh sieve, then added to the V-blender and mixed with the granules for 2 minutes to provide a third admixture. The third admixture was compressed into different tablet strengths using die that provided conforming tablet sizes.
Active formulation tablets having the composition as described in Table 10 were tested for stability under different storage conditions.

[5] = Polymorph stability studies; format: physicochemical; conditions: crystalline polymorphs
Excerpt: (§1) The terms “Form A” and “Form B” refer to forms of Compound A that are purified anhydrous crystalline polymorph forms.

[6] = Biopharmaceutics Classification System (BCS) class; conditions: stable crystalline form
Excerpt: The Biopharmaceutics Classification System (BCS) is a system developed by the U.S. Food and Drug Administration (FDA) to differentiate forms of active pharmaceutical ingredients (API) based on their solubility and intestinal permeability, as follows: Class I: high solubility, high permeability; Class II: low solubility, high permeability; Class III: high solubility, low permeability, and Class IV: low solubility, low permeability. Formulating compositions of a BCS II-type API to enhance solubility and thus improve bioavailability can be a challenge.
as §1

## Cc1nc2ccc(F)cc2n1-c1nc(N)c(F)c(Nc2ccc(C(F)(F)F)cc2)n1 [Form I, 5-fluoro-2-(6-fluoro-2-methyl-1H-benzimidazol-1-yl)-N-[4-(trifluoromethyl)phenyl]pyrimidine-4,6-diamine]
[1]
  water absorption: approximately 1.3%
[2]; Fasted State Intestinal Fluid (FaSSIF) at pH 6.5
  solubility: ~18 µg/mL (≈ 42.8 µM)
[2]; aqueous phosphate buffer at pH 6.5
  solubility: < 1 µg/mL
[3]
  pKa: < 3

## Cc1nc2ccc(F)cc2n1-c1nc(N)c(F)c(Nc2ccc(C(F)(F)F)cc2)n1 [Compound A, 5-fluoro-2-(6-fluoro-2-methyl-1H-benzimidazol-1-yl)-N-[4-(trifluoromethyl)phenyl]pyrimidine-4,6-diamine]
[4]
  chemical and physical stability (XRPD and mDSC): both chemically and physically stable in tablet form and remained in an amorphous state

## Cc1nc2ccc(F)cc2n1-c1nc(N)c(F)c(Nc2ccc(C(F)(F)F)cc2)n1 [Form A, 5-fluoro-2-(6-fluoro-2-methyl-1H-benzimidazol-1-yl)-N-[4-(trifluoromethyl)phenyl]pyrimidine-4,6-diamine]
[5]
  polymorph stability: more stable than Form B; also recorded: most stable anhydrous crystalline form
[6]
  BCS class: BCS II substance

## Cc1nc2ccc(F)cc2n1-c1nc(N)c(F)c(Nc2ccc(C(F)(F)F)cc2)n1 [Form B, 5-fluoro-2-(6-fluoro-2-methyl-1H-benzimidazol-1-yl)-N-[4-(trifluoromethyl)phenyl]pyrimidine-4,6-diamine]
[5]
  polymorph stability: converts to Form A
